Experimental data as given in the supplement of paper PMC5908809.

How the values were obtained:
Assay in all cases: relative IC50 (inflection point of fitted viability curve, relative to fitted max inhibition); higher = less sensitive
Settings in all cases: 72 h
DERL-7 (IL-2 2.5 ng/mL) = tested on: DERL-7 (IL-2 2.5 ng/mL)
Protocol: (§1)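 Drug sensitivity and resistance testing: 5 concentrations over a 10,000-fold range, 72 h at 37 °C, viability by CellTiter-Glo normalised to DMSO and benzethonium chloride controls. IC50 is the inflection point of a logistic fit (min fixed at 0, max fitted), so it is relative to the fitted maximal inhibition. Kept only where fitted max inhibition is at least 50%.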

NK-YS (IL-2 2.5 ng/mL) = tested on: NK-YS (IL-2 2.5 ng/mL)
Protocol: as §1

SNK-6 (IL-2 2.5 ng/mL) = tested on: SNK-6 (IL-2 2.5 ng/mL)
Protocol: as §1

IMC-1 (IL-2 20 ng/mL) = tested on: IMC-1 (IL-2 20 ng/mL)
Protocol: as §1

KHYG-1 (IL-2 2.5 ng/mL) = tested on: KHYG-1 (IL-2 2.5 ng/mL)
Protocol: as §1

KAI3 (IL-2 2.5 ng/mL) = tested on: KAI3 (IL-2 2.5 ng/mL)
Protocol: as §1

NKL (IL-2 2.5 ng/mL) = tested on: NKL (IL-2 2.5 ng/mL)
Protocol: as §1

[1] = tested on: normal primary NK cells, pool 1 (3 donors) (IL-2 2.5 ng/mL)
Protocol: as §1

YT (IL-2 2.5 ng/mL) = tested on: YT (IL-2 2.5 ng/mL)
Protocol: as §1

[2] = tested on: normal primary NK cells, pool 3 (3 donors) (IL-2 2.5 ng/mL)
Protocol: as §1

NK-92 (IL-2 2.5 ng/mL) = tested on: NK-92 (IL-2 2.5 ng/mL)
Protocol: as §1

[3] = tested on: normal primary NK cells, pool 1 (3 donors), resting (IL-2 0 ng/mL)
Protocol: as §1

[4] = tested on: normal primary NK cells, pool 2 (3 donors) (IL-2 2.5 ng/mL)
Protocol: as §1

Row | SMILES | relative IC50 (DERL-7 (IL-2 2.5 ng/mL)) [nM] | relative IC50 (NK-YS (IL-2 2.5 ng/mL)) [nM] | relative IC50 (SNK-6 (IL-2 2.5 ng/mL)) [nM] | relative IC50 (IMC-1 (IL-2 20 ng/mL)) [nM] | relative IC50 (KHYG-1 (IL-2 2.5 ng/mL)) [nM] | relative IC50 (KAI3 (IL-2 2.5 ng/mL)) [nM] | relative IC50 (NKL (IL-2 2.5 ng/mL)) [nM] | relative IC50 [1] [nM] | relative IC50 (YT (IL-2 2.5 ng/mL)) [nM] | relative IC50 [2] [nM] | relative IC50 (NK-92 (IL-2 2.5 ng/mL)) [nM] | relative IC50 [3] [nM] | relative IC50 [4] [nM]
1 | c1ccc(Cn2c(-c3ccc(OC[C@H](C4CCNCC4)n4c(-c5ccccc5)nc5ccccc54)cc3)nc3ccccc32)cc1 [deltarasin] | 1950 | 2410 | 3290 | 3560 | 2850 | 1770 | 2110 | 2880 | 2630 | 2910 | 1830 | 1640 | 2270
2 | CC(=O)OC[C@H]1O[C@@H]([S-])[C@H](OC(C)=O)[C@@H](OC(C)=O)[C@@H]1OC(C)=O.CCP(CC)CC.[Au+] [Auranofin] | 274 | 551 | 319 | 761 | 507 | 859 | 241 | 53.6 | 824 | 78.4 | 791 | 26.1 | 102
3 | COC[C@H](NC(=O)c1cnc(C)s1)C(=O)N[C@@H](COC)C(=O)N[C@@H](Cc1ccccc1)C(=O)[C@@]1(C)CO1 [Oprozomib] | 10.5 | 27.7 | 50.1 | 76.8 | 48 | 24.1 | 52.5 | 34.7 | 49.1 | 24.8 | 32.4 | 19.2 | 17.9
4 | CCCCCCCCc1ccc(CCC(N)(CO)CO)cc1 [Fingolimod] | 2030 | 2280 | 2060 | 2310 | 2290 | 1670 | 1400 | 2450 | 2450 | 3410 | 3260 | 3330 | 1930
5 | CO[C@H](C(=O)[C@@H](O)[C@@H](C)O)[C@@H]1Cc2cc3cc(O[C@H]4C[C@@H](O[C@@H]5C[C@@H](O)[C@H](O)[C@@H](C)O5)[C@H](O)[C@@H](C)O4)c(C)c(O)c3c(O)c2C(=O)[C@H]1O[C@H]1C[C@@H](O[C@@H]2C[C@@H](O)[C@@H](O[C@@H]3C[C@](C)(O)[C@H](O)[C@@H](C)O3)[C@@H](C)O2)[C@H](O)[C@@H](C)O1 [Plicamycin] | 48.2 | 27.7 | 11.7 | 730 | 44.7 | 84.1 | 37.9 | 136 | 31.6 | 785 | 220 | 135 | 692
6 | Cc1c(N)nc([C@H](CC(N)=O)NC[C@H](N)C(N)=O)nc1C(=O)N[C@H](C(=O)N[C@H](C)[C@@H](O)[C@H](C)C(=O)N[C@H](C(=O)NCCc1nc(-c2nc(C(=O)NCCC[S+](C)C)cs2)cs1)[C@@H](C)O)[C@@H](OC1OC(CO)C(O)C(O)C1OC1OC(CO)C(O)C(OC(N)=O)C1O)c1cnc[nH]1 (some centres undefined) [Bleomycin] | 1220 | 635 | 41.8 | 1480 | 2270 | 537 | 1150 | 2140 | 1530 | 1150 | 662 | 3560 | 1510
7 | Nc1nc(Cl)nc2c1ncn2[C@@H]1O[C@H](CO)[C@@H](O)[C@@H]1F [Clofarabine] | 21.7 | 67 | 42.8 | 54.1 | 35 | 49.6 | 35.6 | 14.4 | 225 | 28 | 31.2 | 7.76 | 22.3
8 | C[C@@H]1CN(CC(=O)Nc2ccc3c(c2)Cc2cccc(-c4cc(=O)cc(N5CCOCC5)o4)c2S3)C[C@H](C)O1 | 4940 | 5880 | 6050 | 7360 | 4430 | 4210 | 3200 | 5660 | 6110 | 8100 | 4490 | 3480 | 5660
9 | CCN(CC)CCOc1ccc(C(=C(Cl)c2ccccc2)c2ccccc2)cc1 [Clomifene] | 1580 | 2280 | 1730 | 2410 | 2490 | 1840 | 2280 | 2560 | 3030 | 1540 | 1710 | 2170 | 1810
10 | CCCc1cc(C)[nH]c(=O)c1CNC(=O)c1cc(-c2ccnc(N3CCN(C)CC3)c2)cc2c1cnn2C(C)C [GSK343] | 2420 | 2780 | 3520 | 3630 | 2880 | 2480 | 3350 | 2470 | 2890 | 3690 | 3190 | 2240 | > 10000
11 | Nc1nc(Nc2ccc3c(c2)CC[C@@H](N2CCCC2)CC3)nn1-c1cc2c(nn1)-c1ccccc1CCC2 [BGB324] | 508 | 2020 | 1290 | 3400 | 836 | 1110 | 533 | 766 | 2250 | 1620 | 1020 | 437 | 1070
12 | Nc1ccccc1NC(=O)c1ccc(CNc2nccc(-c3cccnc3)n2)cc1 [Mocetinostat] | 381 | 697 | 242 | 291 | 340 | 313 | 166 | 723 | 1030 | 738 | 246 | 443 | 703
13 | CC1(C)CCC(c2ccc(Cl)cc2)=C(CN2CCN(c3ccc(C(=O)NS(=O)(=O)c4ccc(N[C@H](CCN5CCOCC5)CSc5ccccc5)c(S(=O)(=O)C(F)(F)F)c4)cc3)CC2)C1 [Navitoclax] | 109 | 73.6 | 4.44 | 727 | 67.7 | 3.12 | 35.7 | 85.3 | 26.7 | 203 | 208 | 10.4 | 83
14 | CC(C)[C@H](C(=O)Nc1ccc(C(=O)NO)cc1)c1ccccc1 [AR-42] | 331 | 540 | 241 | 289 | 240 | 77.2 | 219 | 367 | 527 | 527 | 129 | 297 | 430
15 | CN(C)CCN1C(=O)c2cccc3cc(N)cc(c23)C1=O [Amonafide] | 1760 | 1380 | 1700 | 1940 | 1970 | 1280 | 1240 | 3500 | 2140 | 2410 | 1400 | 2250 | 2650
16 | CCc1cnn2c(NCc3ccc[n+]([O-])c3)cc(N3CCCC[C@H]3CCO)nc12 [Dinaciclib] | 13.7 | 4.68 | 4.4 | 11 | 11.3 | 8.92 | 4.24 | 10.9 | 3.6 | 6.24 | 7.4 | 16.4 | 3.72
17 | CC1(COc2ccc3c(c2)ncn3-c2ccc3cccc(N4CCC(N)CC4)c3n2)COC1 [Crenolanib] | 984 | 1890 | 429 | 2710 | 1820 | 2250 | 633 | 1640 | 1600 | 1640 | 998 | 3660 | 1350
18 | COc1cccc2c1C(=O)c1c(O)c3c(c(O)c1C2=O)C[C@@](O)(/C(CO)=N/NC(=O)CCCCCN1C(=O)C=CC1=O)C[C@@H]3O[C@H]1C[C@H](N)[C@H](O)[C@H](C)O1 [Aldoxorubicin] | 31.2 | 34.3 | 21.7 | 44.6 | 57.7 | 41.9 | 4.2 | 140 | 70.8 | 134 | 94.9 | 71.6 | 96.6
